Measurements taken from patent US5162360A, “2-heteroatom containing urea and thiourea ACAT inhibitors” (Warner-Lambert Company, priority 1991, dated 1992).

Tests used:
[1] = APCC in vivo screen: blood cholesterol in cholesterol-fed rats; set-up: species or system male Sprague-Dawley rats; details: Rattus norvegicus, 192 h, oral, chow diet with peanut oil 5.5%, cholesterol 1.5%, cholic acid 0.5%, blood sampled next day 8 AM, read-out: % Change (mg/dl)
Protocol: In one in vivo screen designated APCC, male Sprague-Dawley rats (200 to 225 g) were randomly divided into treatment groups and dosed orally at 4 PM with either vehicle (CMC/Tween) or suspensions of test compounds in vehicle. The control group received vehicle alone. […] The next day the animals were sacrificed at 8 AM to obtain blood samples for cholesterol analysis using standard procedures. Statistical differences between mean cholesterol values for the same vehicle were determined using analysis of variance followed by Fisher's least significant test. […] The figure in parenthesis indicates the number of milligrams/kilogram of test compound administered.

[2] = molecular target: T1, acyl-coenzyme A:cholesterol acyltransferase (ACAT) (Oryctolagus cuniculus, UniProt G1SFD9); test: In vitro ACAT inhibition (radiolabeled cholesterol oleate formation from oleic acid, rabbit intestinal microsomes); assay type: biochemical
T1 sequence (G1SFD9 1-524): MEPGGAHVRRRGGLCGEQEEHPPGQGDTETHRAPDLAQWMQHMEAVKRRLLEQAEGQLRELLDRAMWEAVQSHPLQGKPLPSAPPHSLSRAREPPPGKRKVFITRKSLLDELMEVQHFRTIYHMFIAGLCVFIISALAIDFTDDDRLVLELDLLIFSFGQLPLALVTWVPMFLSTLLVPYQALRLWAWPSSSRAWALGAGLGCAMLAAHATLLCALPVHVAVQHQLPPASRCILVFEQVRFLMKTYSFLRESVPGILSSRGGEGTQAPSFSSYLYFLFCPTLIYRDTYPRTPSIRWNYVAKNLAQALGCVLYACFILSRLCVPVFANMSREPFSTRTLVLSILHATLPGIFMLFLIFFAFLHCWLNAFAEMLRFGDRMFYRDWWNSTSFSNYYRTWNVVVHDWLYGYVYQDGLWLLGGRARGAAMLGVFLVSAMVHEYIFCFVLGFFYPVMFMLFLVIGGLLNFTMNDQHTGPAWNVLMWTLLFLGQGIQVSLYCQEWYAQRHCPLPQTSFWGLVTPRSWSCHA
Protocol: The ability of representative compounds of the present invention to inhibit ACAT was measured using an in vitro test more fully described by F. J. Field and R. G. Salone, in Biochemica et Biophysica 712:557-570 (1982). The test assesses the ability of a test compound to inhibit the acylation of cholesterol by oleic acid by measuring the amount of radio-labeled cholesterol oleate formed from radiolabeled oleic acid in a tissue preparation containing rabbit intestinal microsomes.

`CCCCCCCCCCc1sc(NC(=O)Nc2c(C(C)C)cccc2C(C)C)nc1C` [Example 1, N-[2,6-bis(1-methylethyl)phenyl]-N'-(5-decyl-4-methyl-2-thiazolyl)urea] gave a change in vivo at 30 mg/kg [1] of -20%.

`CCCCCc1sc(NC(=O)Nc2c(C(C)C)cccc2C(C)C)nc1C` [Example 3, N-[2,6-bis(1-methylethyl)phenyl]-N-(5-pentyl-4-methyl-2-thiazolyl)urea] gave a change in vivo at 30 mg/kg [1] of -17% and an IC50 [2] of 1900 nM.

For `CCCCCCc1csc(NC(=O)Nc2c(C(C)C)cccc2C(C)C)n1` [Example 4, N-[2,6-bis(1-methylethyl)phenyl]-N'-(4-hexyl-2-thiazolyl)urea], the change in vivo at 30 mg/kg [1] was 4% and the IC50 [2] was 1600 nM.

In the case of `CC(C)c1cccc(C(C)C)c1NC(=O)Nc1nc(-c2ccccc2)cs1` [Example 5, N-[2,6-bis(1-methylethyl)phenyl]-N'-(4-phenyl-2-thiazolyl)urea], the IC50 [2] is reported as greater than 5000 nM.

In the case of `Cc1csc(NC(=O)Nc2c(C(C)C)cccc2C(C)C)n1` [Example 6, N-[2,6-bis(1-methylethyl)phenyl]-N'-(4-methyl-2-thiazolyl)urea], the IC50 [2] is reported as greater than 5000 nM.

`CC(C)c1cccc(C(C)C)c1NC(=O)Nc1nc(C(C)(C)C)cs1` [Example 7, N-[2,6-bis(1-methylethyl)phenyl]-N'-(4-tert-butyl-2-thiazolyl)urea] showed an IC50 [2] greater than 1000 nM.

In the case of `CCCCCCCCCCCCc1cc(NC(=O)Nc2c(C(C)C)cccc2C(C)C)on1` [Example 8, N-[2,6-bis(1-methylethyl)phenyl]-N'-(3-dodecyl-5-isoxazolyl)urea], the change in vivo at 3 mg/kg [1] is reported as -58% and the change in vivo at 30 mg/kg [1] is reported as -61%.

Molecule `CCCCCCCCCCCCc1cc(NC(=O)Nc2c(C(C)C)cccc2C(C)C)no1` [Example 9, N-[2,6-bis(1-methylethyl)phenyl]-N'-(5-dodecyl-3-isoxazolyl)urea] has a change in vivo at 3 mg/kg [1] of -54%, a change in vivo at 30 mg/kg [1] of -67% and an IC50 [2] of 27 nM.

`CCCCCCCCCCc1cc(NC(=O)Nc2c(C(C)C)cccc2C(C)C)on1` [Example 10, N-[2,6-bis(1-methylethyl)phenyl]-N'-(3-decyl-5-isoxazolyl)urea] showed a change in vivo at 3 mg/kg [1] of -61% and a change in vivo at 30 mg/kg [1] of -69%.

`CCCCCCCCCCCc1cc(NC(=O)Nc2c(C(C)C)cccc2C(C)C)on1` [Example 11, N-[2,6-bis(1-methylethyl)phenyl]-N'-(3-undecyl-5-isoxazolyl)urea] gave a change in vivo at 3 mg/kg [1] of -67%, a change in vivo at 30 mg/kg [1] of -70% and an IC50 [2] of 20 nM.

In the case of `CCCCCCCCCCCCCc1cc(NC(=O)Nc2c(C(C)C)cccc2C(C)C)on1` [Example 12, N-[2,6-bis(1-methylethyl)phenyl]-N'-(3-tridecyl-5-isoxazolyl)urea], the change in vivo at 3 mg/kg [1] is reported as -51% and the change in vivo at 30 mg/kg [1] is reported as -62%.

`CCCCCCCCCCCCCCc1cc(NC(=O)Nc2c(C(C)C)cccc2C(C)C)on1` [Example 13, N-[2,6-bis(1-methylethyl)phenyl]-N'-(3-tetradecyl-5-isoxazolyl)urea] showed a change in vivo at 3 mg/kg [1] of -44% and a change in vivo at 30 mg/kg [1] of -64%.

With `CCCCCCCCCCc1cc(NC(=O)Nc2c(C(C)C)cccc2C(C)C)no1` [Example 14] the change in vivo at 3 mg/kg [1] was -29%, the change in vivo at 30 mg/kg [1] was -62% and the IC50 [2] was 28 nM.

In the case of `CCCCCCCCCCCc1cc(NC(=O)Nc2c(C(C)C)cccc2C(C)C)no1` [Example 15, N-[2,6-bis(1-methylethyl)phenyl]-N'-(5-undecyl-3-isoxazolyl)urea], the change in vivo at 3 mg/kg [1] is reported as -51%, the change in vivo at 30 mg/kg [1] is reported as -61% and the IC50 [2] is reported as 27 nM.

`CCCCCCCCCCCCCc1cc(NC(=O)Nc2c(C(C)C)cccc2C(C)C)no1` [Example 16, N-[2,6-bis(1-methylethyl)phenyl]-N'-(5-tridecyl-3-isoxazolyl)urea] showed a change in vivo at 3 mg/kg [1] of -59% and a change in vivo at 30 mg/kg [1] of -62%.

`CCCCCCCCCCCCCCc1cc(NC(=O)Nc2c(C(C)C)cccc2C(C)C)no1` [Example 17, N-[2,6-bis(1-methylethyl)phenyl]-N'-(5-tetradecyl-3-isoxazolyl)urea] gave a change in vivo at 3 mg/kg [1] of -47%, a change in vivo at 30 mg/kg [1] of -58% and an IC50 [2] of 110 nM.

Work on `Cc1cc(NC(=O)Nc2c(C(C)C)cccc2C(C)C)no1` [Example 18, N-[2,6-bis(1 methylethyl)phenyl]-N'-(5-methyl-3-isoxazolyl)urea] yielded an IC50 [2] greater than 5000 nM.

`CCCCN(CCCC)Cc1cc(NC(=O)Nc2c(C(C)C)cccc2C(C)C)no1` [Example 19, N-[2,6-bis(1-methylethyl)phenyl]-N'-[5-[(dibutylamino)methyl]-3-isoxazolyl]urea] showed a change in vivo at 3 mg/kg [1] of -33%, a change in vivo at 30 mg/kg [1] of -50% and an IC50 [2] of 510 nM.

With `CCCCCCN(CCCCCC)Cc1cc(NC(=O)Nc2c(C(C)C)cccc2C(C)C)no1` [Example 20, N-[2,6-bis(1-methylethyl)phenyl]-N'-[5-[(dihexylamino)methyl]-3-isoxazolyl]urea] the change in vivo at 30 mg/kg [1] was -7% and the IC50 [2] was 2700 nM.

`CCCCN(CCCC)Cc1cc(NC(=O)Nc2c(C(C)C)cccc2C(C)C)n(Cc2ccccc2)n1` [Example 22, N-[2,6-bis(1-methylethyl)phenyl]-N'-[3-[(dibutylamino)methyl]-1-(phenylmethyl)-1H-pyrazol-5-yl]urea] gave a change in vivo at 30 mg/kg [1] of -9% and an IC50 [2] of 1900 nM.

Molecule `CCCCCCCCCCCn1nccc1NC(=O)Nc1c(C(C)C)cccc1C(C)C` [Example 23, N-[2,6-bis(1-methylethyl)phenyl]-N'-(1-undecyl-1H-pyrazol-5-yl)urea] has a change in vivo at 3 mg/kg [1] of 5%, a change in vivo at 30 mg/kg [1] of -64% and an IC50 [2] of 35 nM.

For `CCCCCCCCCCCCc1cc(NC(=O)Nc2c(C(C)C)cccc2C(C)C)n(-c2ccccn2)n1` [Example 24, N-[2,6-bis(1-methylethyl)phenyl]-N'-[3-dodecyl-1-(2-pyridyl)-1H-pyrazol-5-yl]urea], the change in vivo at 30 mg/kg [1] was 9% and the IC50 [2] was 100 nM.
